Data as given in patent US20250262210A1, “LZTR1 MUTANT TUMORS AND METHODS THEREOF” (The Trustees of Columbia University in the City of New York, priority 2022, published 2025).
Peptide text beside a SMILES is read from it. * marks the point of attachment. Cbz = O=C(OCc1ccccc1)*

Columns and labels:
[1] = system: schwannoma-like cells from Lztr1fl/fl;Cdkn2Afl/fl;GFAP-Cre+ mice (E0954); test: Clonogenic assay of schwannoma-like cells; type: cell-based, mouse; settings: single dose; 72 hr treatment; FIG. 15C-F
Description: 500 cells were seeded in triplicate wells of 6-well plates. […] Cells were stained with crystal violet and colonies were counted.

[2] = system: subcutaneous tumors of schwannoma-like cells from Lztr1fl/fl;Cdkn2Afl/fl;GFAP-Cre+ mice (E0954); type: in vivo; settings: single RTK inhibitor; summary in the discussion
Description: Mice were weighted daily. Tumor diameters were measured every 2 days with caliper and tumor volumes estimated using the formula: width2×length/2=V (mm3). Mice were euthanized when the tumor size reached 2,000 mm3 or if the skin was ulcerated, according to IACUC recommendation. All experiments were performed according to the guidelines of the Institutional Animal Care and Use Committee at Columbia University.

[3] = system: EGFR; test: LZTR1-mediated destabilization of EGFR in transfected HEK 293T cells (western blot); type: cell-based; settings: HEK 293T cells with EGFR-GFP and LZTR1-FLAG; FIG. 3A, 3C
Description: (§2) Cells were lysed in RIPA buffer (50 mM Tris-HCl, pH 7.5, 150 mM NaCl, 1 mM EDTA, 1% NP40, 0.5% sodium deoxycholate, 0.1% sodium dodecyl sulphate, 1.5 mM Na3VO4, 50 mM sodium fluoride, 10 mM sodium pyrophosphate, 10 mM β-glycerolphosphate and EDTA-free protease inhibitor cocktail (Roche)) or NP40 lysis buffer (50 mM Tris-HCl, pH 7.5, 150 mM NaCl, 1 mM EDTA, 1% NP40, 1.5 mM Na3VO4, 50 mM sodium fluoride, 10 mM sodium pyrophosphate, 10 mM β-glycerolphosphate and EDTA-free protease inhibitor cocktail (Roche)). Lysates were centrifuged 14,000 r.p.m. for 15 min at 4° C. and supernatant were collected. […] Beads were washed with lysis buffer four times and eluted in 2×SDS sample buffer. Immunoprecipitates or lysates were separated by SDS-PAGE and transferred to polyvinylidene difluoride or nitrocellulose membranes. Membranes were blocked in TBS-T (0.1% Tween20) with 5% non-fat milk or BSA and probed with primary antibodies.

[4] = system: AXL; test: LZTR1-mediated destabilization of AXL in transfected HEK 293T cells (western blot); type: cell-based; settings: HEK 293T cells with AXL-HA and LZTR1-FLAG; FIG. 3B, 3D
Description: as §2

[5] = system: RIT1; test: LZTR1-mediated reduction of RIT1 in transfected HEK 293T cells (western blot); type: cell-based; settings: HEK 293T cells with FLAG-RIT1 and LZTR1-FLAG; FIG. 10A, 10C
Description: as §2

[6] = system: EGFR; test: Ubiquitylation assay of EGFR in HEK 293T cells; type: cell-based; settings: MLN4924 1 μM, FIG. 3E
Description: (§1) 293T and Hela cells were transfected with plasmid expressing EGFR-GFP, HA-Ub and LZTR1-FLAG as indicated in figures and treated with MLN4924 (1 μM), chloroquine (CQ, 100 μM), MG132 (20 μM), or EGF (20 ng/ml or 100 ng/ml) and ubiquitylation assay was performed under denaturing condition. Cells were lysed in 1% SDS and boiled at 100° C. for 10 min. Lysates were diluted with tris buffered saline containing 1% N P40 and centrifuged 14000 r.p.m. for 15 min at 4° C. Immunoprecipitation was performed using 500 μg to 1 mg of cellular lysates using HA affinity gel (Sigma, E6779), AXL or EGFR antibodies at 4° C. overnight followed by protein G/A beads for 90 min at 4° C. […] Protein samples were separated by SDS-PAGE and transferred to PV DF membrane and analyzed by western blot.

[7] = system: AXL; test: Ubiquitylation assay of AXL in Hela cells; type: cell-based; settings: chloroquine 100 μM, MG132 20 μM, FIG. 3F
Description: as §1

SMILES: CN(C)C/C=C/C(=O)Nc1cc2c(Nc3ccc(F)c(Cl)c3)ncnc2cc1O[C@H]1CCOC1 [afatinib]
- clonogenicity [1]: ineffective

SMILES: Nc1nc(Nc2ccc3c(c2)CC[C@@H](N2CCCC2)CC3)nn1-c1cc2c(nn1)-c1ccccc1CCC2 [bemcentinib]
- therapeutic effect of single treatment [2]: minimal
- clonogenicity [1]: ineffective

SMILES: C=CC(=O)Nc1cc(Nc2nccc(-c3cn(C)c4ccccc34)n2)c(OC)cc1N(C)CCN(C)C [osimertinib]
- clonogenicity [1]: ineffective

SMILES: NS(=O)(=O)OC[C@@H]1C[C@@H](n2ccc3c(N[C@H]4CCc5ccccc54)ncnc32)C[C@@H]1O [MLN4924]
- LZTR1-mediated destabilization of EGFR [3]: rescued
- LZTR1-mediated destabilization of AXL [4]: rescued
- RIT1 reduction by LZTR1 [5]: rescued
- LZTR1-increased formation of high molecular weight polyubiquitylated EGFR [6]: abolished

SMILES: CO/C1=C\C(C)=C\[C@@H](C)[C@@H](O)[C@@H](C)C/C(C)=C/C=C/[C@H](OC)[C@@H]([C@@H](C)[C@@H](O)[C@H](C)[C@@]2(O)C[C@@H](O)[C@H](C)[C@@H](C(C)C)O2)OC1=O [bafilomycin A1]
- LZTR1-mediated destabilization of EGFR [3]: relieved
- LZTR1-mediated destabilization of AXL [4]: relieved

SMILES: CCN(CC)CCCC(C)Nc1ccnc2cc(Cl)ccc12 (stereo not shown) [chloroquine]
- LZTR1-increased polyubiquitylated species of AXL [7]: accumulated at much higher levels

SMILES: CC(C)C[C@@H](C=O)NC(=O)[C@H](CC(C)C)NC(=O)[C@H](CC(C)C)NC(=O)OCc1ccccc1 [MG132] (Cbz-Leu-Leu-Leu-aldehyde)
- LZTR1-increased polyubiquitylated species of AXL [7]: ineffective

SMILES: CC(C)C[C@H](NC(=O)[C@H](Cc1ccccc1)NC(=O)c1cnccn1)B(O)O [bortezomib]
- RIT1 reduction by LZTR1 [5]: rescued
